Test results: ChEMBL document CHEMBL5715954, “Silencing c-Myc translation as a therapeutic strategy through targeting PI3Kδ and CK1ε in hematological malignancies” (Blood, 2017)

Legend:
Set-up in all cases: scale not given: the % may be the effect or the level left
[1] = molecular target: Homeodomain-interacting protein kinase 2 (Homo sapiens) (UniProt Q9H2X6); assay: Inhibition of human HIPK2 assessed as enzyme activity at 1 uM using myelin basic protein as substrate preincubated for 20 mins followed by [gamma-33P]-ATP addition and measured after 120 mins by radiometric Hot-SpotSM Kinase assay relative to control
Homeodomain-interacting protein kinase 2 (Homo sapiens), sequence (Q9H2X6 whole entry, looked up): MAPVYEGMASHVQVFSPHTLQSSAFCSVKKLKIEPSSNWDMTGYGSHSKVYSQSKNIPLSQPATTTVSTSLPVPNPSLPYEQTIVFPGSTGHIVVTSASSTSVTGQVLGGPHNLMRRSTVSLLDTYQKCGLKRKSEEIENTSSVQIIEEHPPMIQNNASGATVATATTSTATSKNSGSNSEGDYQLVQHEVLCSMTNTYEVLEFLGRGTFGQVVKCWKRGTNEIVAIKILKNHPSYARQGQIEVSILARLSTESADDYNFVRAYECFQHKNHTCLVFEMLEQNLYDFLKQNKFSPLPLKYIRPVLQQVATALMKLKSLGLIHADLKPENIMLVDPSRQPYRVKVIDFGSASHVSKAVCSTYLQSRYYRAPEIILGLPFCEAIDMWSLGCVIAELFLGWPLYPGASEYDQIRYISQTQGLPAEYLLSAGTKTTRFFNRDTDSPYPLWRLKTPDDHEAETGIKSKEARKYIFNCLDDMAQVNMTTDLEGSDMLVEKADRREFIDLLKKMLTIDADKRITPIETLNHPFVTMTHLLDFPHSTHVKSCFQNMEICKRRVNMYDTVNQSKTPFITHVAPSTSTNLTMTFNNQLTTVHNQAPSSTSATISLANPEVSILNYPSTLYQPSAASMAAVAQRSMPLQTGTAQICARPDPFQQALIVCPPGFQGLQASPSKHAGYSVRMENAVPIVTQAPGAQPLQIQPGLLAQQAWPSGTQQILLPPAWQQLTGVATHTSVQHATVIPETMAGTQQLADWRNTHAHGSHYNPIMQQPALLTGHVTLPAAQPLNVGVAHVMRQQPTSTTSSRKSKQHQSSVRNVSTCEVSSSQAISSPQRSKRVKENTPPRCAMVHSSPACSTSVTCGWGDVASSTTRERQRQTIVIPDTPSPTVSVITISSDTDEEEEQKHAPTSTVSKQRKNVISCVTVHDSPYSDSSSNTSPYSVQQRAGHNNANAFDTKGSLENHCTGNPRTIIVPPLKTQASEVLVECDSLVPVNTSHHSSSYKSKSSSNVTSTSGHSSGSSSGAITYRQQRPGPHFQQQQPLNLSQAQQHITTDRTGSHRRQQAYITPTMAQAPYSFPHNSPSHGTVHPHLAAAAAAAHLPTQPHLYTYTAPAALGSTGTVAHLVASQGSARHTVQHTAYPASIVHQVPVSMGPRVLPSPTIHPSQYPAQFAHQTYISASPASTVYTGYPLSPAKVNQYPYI

[2] = molecular target: T1, Ephrin type-B receptor 3 (Homo sapiens) (UniProt P54753); assay: Inhibition of human EPHB3 assessed as enzyme activity at 1 uM using poly[Glu:Tyr] (4:1) as substrate preincubated for 20 mins followed by [gamma-33P]-ATP addition and measured after 120 mins by radiometric Hot-SpotSM Kinase assay relative to control
T1 sequence (whole entry): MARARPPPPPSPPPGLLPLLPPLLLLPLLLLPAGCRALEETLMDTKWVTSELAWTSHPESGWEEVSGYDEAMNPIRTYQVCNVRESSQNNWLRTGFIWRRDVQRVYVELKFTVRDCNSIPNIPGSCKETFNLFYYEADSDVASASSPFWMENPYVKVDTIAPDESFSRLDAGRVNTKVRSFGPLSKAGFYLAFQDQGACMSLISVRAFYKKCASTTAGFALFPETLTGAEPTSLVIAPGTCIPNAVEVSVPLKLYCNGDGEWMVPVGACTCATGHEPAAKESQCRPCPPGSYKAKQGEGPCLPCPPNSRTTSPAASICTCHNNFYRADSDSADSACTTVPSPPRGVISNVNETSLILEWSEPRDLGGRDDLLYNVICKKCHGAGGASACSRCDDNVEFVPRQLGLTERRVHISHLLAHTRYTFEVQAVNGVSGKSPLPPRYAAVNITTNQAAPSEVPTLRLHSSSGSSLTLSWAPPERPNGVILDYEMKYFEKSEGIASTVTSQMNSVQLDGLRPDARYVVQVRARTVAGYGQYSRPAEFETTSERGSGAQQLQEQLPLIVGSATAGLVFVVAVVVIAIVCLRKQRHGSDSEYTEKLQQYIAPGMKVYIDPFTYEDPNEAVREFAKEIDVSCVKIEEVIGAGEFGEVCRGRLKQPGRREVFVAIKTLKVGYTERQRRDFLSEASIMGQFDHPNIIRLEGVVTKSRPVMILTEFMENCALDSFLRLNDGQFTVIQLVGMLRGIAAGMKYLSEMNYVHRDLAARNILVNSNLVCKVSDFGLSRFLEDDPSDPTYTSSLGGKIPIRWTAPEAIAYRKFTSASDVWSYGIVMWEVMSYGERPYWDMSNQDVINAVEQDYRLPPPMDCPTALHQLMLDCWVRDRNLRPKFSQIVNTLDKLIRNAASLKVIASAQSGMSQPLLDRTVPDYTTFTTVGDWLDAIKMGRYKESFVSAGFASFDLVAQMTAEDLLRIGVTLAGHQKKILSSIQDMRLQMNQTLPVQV

[3] = molecular target: STE20-like serine/threonine-protein kinase (Homo sapiens) (UniProt Q9H2G2); assay: Inhibition of human SLK assessed as enzyme activity at 1 uM using histone H3 as substrate preincubated for 20 mins followed by [gamma-33P]-ATP addition and measured after 120 mins by radiometric Hot-SpotSM Kinase assay relative to control
STE20-like serine/threonine-protein kinase (Homo sapiens), sequence (Q9H2G2 whole entry, looked up): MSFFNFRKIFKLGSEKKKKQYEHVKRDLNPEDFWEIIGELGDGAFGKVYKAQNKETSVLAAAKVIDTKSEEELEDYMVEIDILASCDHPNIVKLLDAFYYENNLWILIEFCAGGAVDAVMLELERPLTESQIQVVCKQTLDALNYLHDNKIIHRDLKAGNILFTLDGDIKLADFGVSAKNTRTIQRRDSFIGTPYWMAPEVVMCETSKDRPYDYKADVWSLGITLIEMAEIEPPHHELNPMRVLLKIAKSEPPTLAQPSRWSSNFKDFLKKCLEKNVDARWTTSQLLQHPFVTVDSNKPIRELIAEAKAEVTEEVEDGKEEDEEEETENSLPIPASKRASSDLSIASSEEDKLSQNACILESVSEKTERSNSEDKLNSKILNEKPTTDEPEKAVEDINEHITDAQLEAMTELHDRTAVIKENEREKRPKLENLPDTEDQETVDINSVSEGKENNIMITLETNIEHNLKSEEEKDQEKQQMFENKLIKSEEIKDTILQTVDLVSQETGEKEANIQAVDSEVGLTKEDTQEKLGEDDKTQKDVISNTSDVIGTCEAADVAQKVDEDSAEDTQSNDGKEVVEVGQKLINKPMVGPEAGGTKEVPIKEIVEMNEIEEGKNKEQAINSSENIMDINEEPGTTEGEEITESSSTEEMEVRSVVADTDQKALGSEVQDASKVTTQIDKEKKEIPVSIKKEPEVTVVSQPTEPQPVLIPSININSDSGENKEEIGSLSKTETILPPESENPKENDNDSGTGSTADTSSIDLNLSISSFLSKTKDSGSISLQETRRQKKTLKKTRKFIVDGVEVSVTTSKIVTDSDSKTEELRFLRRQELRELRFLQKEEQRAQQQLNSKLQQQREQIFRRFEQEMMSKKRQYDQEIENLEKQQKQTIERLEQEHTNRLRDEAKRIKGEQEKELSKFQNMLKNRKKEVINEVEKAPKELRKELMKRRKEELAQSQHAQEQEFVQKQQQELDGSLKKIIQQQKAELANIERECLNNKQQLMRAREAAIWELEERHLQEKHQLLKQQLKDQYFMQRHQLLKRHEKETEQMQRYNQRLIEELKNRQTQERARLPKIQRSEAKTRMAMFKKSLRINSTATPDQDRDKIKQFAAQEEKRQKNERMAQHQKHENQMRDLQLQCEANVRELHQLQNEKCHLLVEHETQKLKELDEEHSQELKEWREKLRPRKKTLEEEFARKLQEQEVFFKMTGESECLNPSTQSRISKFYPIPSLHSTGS

[4] = molecular target: CDK4/Cyclin D3 (Homo sapiens) (UniProt P11802+P30281); assay: Inhibition of human CDK4/cyclin D3 assessed as enzyme activity at 1 uM using RB-CTF as substrate preincubated for 20 mins followed by [gamma-33P]-ATP addition and measured after 120 mins by radiometric Hot-SpotSM Kinase assay relative to control; format: protein-complex assay
[5] = molecular target: T2, Serine/threonine-protein kinase TAO3 (Homo sapiens) (UniProt Q9H2K8); assay: Inhibition of human TAOK3 assessed as enzyme activity at 1 uM using myelin basic protein as substrate preincubated for 20 mins followed by [gamma-33P]-ATP addition and measured after 120 mins by radiometric Hot-SpotSM Kinase assay relative to control
T2 sequence (whole entry): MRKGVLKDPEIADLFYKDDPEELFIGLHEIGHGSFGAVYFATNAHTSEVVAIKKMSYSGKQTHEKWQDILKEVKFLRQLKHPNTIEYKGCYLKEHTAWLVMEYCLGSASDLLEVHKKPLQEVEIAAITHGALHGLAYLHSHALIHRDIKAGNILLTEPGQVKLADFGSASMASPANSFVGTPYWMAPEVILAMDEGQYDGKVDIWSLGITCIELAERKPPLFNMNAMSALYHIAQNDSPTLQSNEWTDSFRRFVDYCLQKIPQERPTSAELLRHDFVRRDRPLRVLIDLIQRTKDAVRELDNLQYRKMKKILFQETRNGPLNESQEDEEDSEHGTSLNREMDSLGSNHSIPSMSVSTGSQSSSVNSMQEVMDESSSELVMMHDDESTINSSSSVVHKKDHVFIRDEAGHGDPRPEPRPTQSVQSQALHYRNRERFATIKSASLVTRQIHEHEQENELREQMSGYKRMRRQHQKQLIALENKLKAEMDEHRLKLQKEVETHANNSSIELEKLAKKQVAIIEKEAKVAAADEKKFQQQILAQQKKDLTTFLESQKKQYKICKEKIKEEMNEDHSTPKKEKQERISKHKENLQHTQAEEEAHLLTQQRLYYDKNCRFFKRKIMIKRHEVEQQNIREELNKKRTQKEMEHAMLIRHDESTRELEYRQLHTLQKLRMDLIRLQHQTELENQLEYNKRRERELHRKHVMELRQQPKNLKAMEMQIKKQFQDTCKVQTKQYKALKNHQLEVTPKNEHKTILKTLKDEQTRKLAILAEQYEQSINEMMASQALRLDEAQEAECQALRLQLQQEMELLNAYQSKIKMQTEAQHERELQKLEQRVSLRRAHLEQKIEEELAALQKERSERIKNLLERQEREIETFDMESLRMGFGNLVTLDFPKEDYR

[6] = molecular target: T3, Serine/threonine-protein kinase STK11 (Homo sapiens) (UniProt Q15831); assay: Inhibition of human LKB1 assessed as enzyme activity at 1 uM using LSNLYHQGKFLQTFCGSPLYRRR as substrate preincubated for 20 mins followed by [gamma-33P]-ATP addition and measured after 120 mins by radiometric Hot-SpotSM Kinase assay relative to control
T3 sequence (whole entry): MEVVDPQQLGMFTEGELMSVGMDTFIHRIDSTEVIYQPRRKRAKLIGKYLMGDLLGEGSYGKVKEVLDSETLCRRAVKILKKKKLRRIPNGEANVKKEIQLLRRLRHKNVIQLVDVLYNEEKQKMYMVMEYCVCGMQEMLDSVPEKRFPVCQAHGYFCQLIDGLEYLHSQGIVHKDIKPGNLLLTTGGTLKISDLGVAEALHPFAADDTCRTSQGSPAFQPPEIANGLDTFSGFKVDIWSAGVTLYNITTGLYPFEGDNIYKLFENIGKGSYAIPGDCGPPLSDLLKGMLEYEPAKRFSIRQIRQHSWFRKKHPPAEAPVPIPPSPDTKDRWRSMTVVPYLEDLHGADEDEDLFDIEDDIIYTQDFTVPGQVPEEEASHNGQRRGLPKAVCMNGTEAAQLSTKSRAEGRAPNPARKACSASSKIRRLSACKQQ

SMILES	Activity [1] [%]	Activity [2] [%]	Activity [3] [%]	Activity [4] [%]	Activity [5] [%]	Activity [6] [%]
CC[C@H](Nc1ncnc2[nH]cnc12)c1nc2cccc(F)c2c(=O)n1-c1ccccc1	100	98.3	97.3	99.3	98.6	104
C[C@H](Nc1ncnc2nc[nH]c12)c1cc2cccc(Cl)c2c(=O)n1-c1ccccc1	100	89.7	97.5	97.5	106	93
CC(C)Oc1ccc(-c2nn([C@@H](C)c3oc4ccc(F)cc4c(=O)c3-c3cccc(F)c3)c3ncnc(N)c23)cc1F [UMBRALISIB]	107	97.4	94.5	98.8	106	100
